Patent EP0055702B1, “Antithrombotic treatment” (priority 1980, dated 1982)
“And” between values parts separate entries of the source, which are not always exact repeats. Identical values can stand only once.

How the values were obtained:
[1] = tested on: human platelet-rich plasma; experiment: Platelet aggregometer, technique of Born, human platelet-rich plasma; type: cell-based; conditions: 1 millimole (mM), ADP, collagen, epinephrine and arachidonic acid
Excerpt: In order to evaluate an antithrombotic effect, it is preferable to withdraw samples of blood from a patient undergoing treatment and measure platelet aggregation. One method is described by Born in Nature 194, pp. 927-929 (1962) and may be used for this purpose, if desired.
That sodium bisulphite is a platelet antiagregatory agent is shown by using a platelet aggregometer based on the technique of Born (above cited).

Fibrinogen = target: T1, Fibrinogen (Homo sapiens, UniProt P02671+P02675+P02679); experiment: Fibrinogen assay, Example 4; type: biochemical; conditions: Control 218; for Fibrogen: solution D
T1 construct: from tissue; host or cells: human plasma
T1 sequence (P02671 20-629 limits assumed): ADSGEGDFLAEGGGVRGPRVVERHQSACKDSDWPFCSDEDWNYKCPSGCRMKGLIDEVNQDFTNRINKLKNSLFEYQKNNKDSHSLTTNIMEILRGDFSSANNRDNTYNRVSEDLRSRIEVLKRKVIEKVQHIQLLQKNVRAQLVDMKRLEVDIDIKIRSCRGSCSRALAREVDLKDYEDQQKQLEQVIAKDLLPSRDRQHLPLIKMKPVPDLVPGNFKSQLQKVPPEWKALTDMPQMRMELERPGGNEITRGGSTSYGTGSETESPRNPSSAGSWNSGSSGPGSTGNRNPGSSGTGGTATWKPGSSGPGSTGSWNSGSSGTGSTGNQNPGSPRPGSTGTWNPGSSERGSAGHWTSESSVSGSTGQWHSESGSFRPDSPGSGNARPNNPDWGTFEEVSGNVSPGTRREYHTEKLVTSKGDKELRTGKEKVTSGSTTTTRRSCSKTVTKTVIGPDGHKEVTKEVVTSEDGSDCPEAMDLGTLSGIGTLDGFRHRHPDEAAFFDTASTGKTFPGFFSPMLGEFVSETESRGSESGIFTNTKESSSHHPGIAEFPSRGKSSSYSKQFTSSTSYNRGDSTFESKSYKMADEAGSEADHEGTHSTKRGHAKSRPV
T1 sequence (P02675 31-491): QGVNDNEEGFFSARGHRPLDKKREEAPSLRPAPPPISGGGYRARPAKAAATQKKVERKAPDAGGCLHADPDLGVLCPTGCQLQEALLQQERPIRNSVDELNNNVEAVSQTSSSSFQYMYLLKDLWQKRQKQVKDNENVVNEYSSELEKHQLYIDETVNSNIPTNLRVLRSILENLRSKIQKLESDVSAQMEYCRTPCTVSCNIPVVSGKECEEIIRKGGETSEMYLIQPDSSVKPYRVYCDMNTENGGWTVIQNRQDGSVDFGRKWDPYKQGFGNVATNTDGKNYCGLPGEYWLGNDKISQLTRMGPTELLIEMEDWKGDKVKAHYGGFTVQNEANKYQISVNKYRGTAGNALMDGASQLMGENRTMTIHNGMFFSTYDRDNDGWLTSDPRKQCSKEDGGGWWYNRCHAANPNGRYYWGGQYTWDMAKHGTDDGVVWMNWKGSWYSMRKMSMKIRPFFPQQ
T1 sequence (P02679 27-453): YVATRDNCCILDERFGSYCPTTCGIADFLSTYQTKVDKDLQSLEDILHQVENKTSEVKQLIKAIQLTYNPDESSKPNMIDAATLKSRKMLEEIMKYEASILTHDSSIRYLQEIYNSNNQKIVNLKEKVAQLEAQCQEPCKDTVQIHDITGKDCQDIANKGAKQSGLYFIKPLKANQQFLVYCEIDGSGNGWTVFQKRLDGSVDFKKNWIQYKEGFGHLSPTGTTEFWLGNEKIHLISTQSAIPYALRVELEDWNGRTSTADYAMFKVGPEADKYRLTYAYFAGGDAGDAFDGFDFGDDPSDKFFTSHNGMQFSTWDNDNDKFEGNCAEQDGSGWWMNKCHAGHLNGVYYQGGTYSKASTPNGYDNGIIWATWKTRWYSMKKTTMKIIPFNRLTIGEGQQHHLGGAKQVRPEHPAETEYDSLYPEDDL
Excerpt: (§1) The evaluation procedure used is that described in "Human Blood Coagulation, Haemostasis and Thrombosis", edited by Rosemary Biggs, published by Blackwell Scientific Publications, Oxford, England (2nd Edition), pages 670-705, 1976. […]

Factor V = target: T2, Factor V (Homo sapiens, UniProt P12259); experiment: Factor V assay, Example 4; type: biochemical; conditions: Control 75
T2 construct: from tissue; host or cells: human plasma
T2 sequence (P12259 29-2224): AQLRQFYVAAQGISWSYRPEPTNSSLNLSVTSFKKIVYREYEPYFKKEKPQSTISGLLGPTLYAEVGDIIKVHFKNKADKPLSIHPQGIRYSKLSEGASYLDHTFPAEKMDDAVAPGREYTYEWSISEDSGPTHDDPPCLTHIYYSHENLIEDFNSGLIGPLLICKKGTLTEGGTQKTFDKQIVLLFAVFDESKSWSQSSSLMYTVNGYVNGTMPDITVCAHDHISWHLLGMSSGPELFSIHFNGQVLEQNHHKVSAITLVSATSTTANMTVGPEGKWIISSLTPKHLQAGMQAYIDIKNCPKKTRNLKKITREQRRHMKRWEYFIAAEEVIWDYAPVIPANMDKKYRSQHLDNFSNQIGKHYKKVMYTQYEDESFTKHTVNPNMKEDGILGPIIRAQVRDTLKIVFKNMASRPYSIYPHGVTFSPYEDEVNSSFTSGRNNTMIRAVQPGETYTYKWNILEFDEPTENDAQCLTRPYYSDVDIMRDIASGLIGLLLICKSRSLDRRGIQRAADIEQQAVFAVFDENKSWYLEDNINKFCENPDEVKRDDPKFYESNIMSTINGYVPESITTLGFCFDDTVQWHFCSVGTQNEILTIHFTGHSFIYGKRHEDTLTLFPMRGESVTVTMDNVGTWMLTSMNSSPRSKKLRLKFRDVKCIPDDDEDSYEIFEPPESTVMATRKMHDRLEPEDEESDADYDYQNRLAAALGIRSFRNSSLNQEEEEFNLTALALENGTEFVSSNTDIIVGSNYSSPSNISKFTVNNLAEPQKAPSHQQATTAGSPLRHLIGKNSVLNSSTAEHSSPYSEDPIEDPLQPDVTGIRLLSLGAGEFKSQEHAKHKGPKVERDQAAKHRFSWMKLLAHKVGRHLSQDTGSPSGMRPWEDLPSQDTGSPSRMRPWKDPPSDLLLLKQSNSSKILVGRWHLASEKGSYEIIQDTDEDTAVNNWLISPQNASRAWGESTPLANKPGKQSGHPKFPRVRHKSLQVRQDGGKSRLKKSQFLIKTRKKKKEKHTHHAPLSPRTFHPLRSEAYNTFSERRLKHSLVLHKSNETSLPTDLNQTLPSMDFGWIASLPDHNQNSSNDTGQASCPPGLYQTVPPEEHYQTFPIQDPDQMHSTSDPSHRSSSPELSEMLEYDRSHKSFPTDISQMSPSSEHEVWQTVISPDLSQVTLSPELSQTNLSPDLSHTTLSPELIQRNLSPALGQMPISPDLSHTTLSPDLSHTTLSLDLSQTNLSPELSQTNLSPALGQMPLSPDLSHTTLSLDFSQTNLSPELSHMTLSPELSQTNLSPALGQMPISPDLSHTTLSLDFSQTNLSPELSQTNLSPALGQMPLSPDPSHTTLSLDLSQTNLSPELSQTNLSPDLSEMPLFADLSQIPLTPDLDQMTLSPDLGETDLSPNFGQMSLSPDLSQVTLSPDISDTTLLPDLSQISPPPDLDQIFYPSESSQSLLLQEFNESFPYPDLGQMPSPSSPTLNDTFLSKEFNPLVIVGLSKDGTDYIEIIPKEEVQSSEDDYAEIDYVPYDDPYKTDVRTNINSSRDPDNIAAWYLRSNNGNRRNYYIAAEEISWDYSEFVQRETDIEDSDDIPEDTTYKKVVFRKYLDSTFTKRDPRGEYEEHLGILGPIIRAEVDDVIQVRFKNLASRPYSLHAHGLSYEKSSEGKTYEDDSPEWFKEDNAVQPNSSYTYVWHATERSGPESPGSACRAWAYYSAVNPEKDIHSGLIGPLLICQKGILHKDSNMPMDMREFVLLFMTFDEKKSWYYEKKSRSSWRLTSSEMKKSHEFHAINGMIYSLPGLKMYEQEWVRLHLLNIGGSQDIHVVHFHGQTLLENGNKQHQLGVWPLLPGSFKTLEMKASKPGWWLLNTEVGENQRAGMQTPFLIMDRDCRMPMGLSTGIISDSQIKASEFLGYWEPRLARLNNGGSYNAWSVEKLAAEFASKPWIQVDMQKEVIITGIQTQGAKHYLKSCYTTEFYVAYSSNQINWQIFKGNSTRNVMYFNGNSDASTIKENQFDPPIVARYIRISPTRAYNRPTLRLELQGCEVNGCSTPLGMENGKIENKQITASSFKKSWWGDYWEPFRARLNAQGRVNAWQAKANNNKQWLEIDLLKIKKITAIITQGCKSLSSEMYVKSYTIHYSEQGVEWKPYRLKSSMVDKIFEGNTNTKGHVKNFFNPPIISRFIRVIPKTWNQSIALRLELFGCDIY
Excerpt: as §1

human plasma = experiment: Blood coagulation factors by standard procedures (Biggs), human plasma; type: biochemical; conditions: 5 mg/ml
Procedure: The effect of U.S.P. grade sodium bisulphite on blood coagulation factors was evaluated by standard procedures (Biggs) and the results are shown in Table III below.
The effect is directly proportional to dose.

rats = experiment: Rats fed bait containing 0.5% sodium bisulphite; type: in vivo
Excerpt: Five rats, each in a separate cage, were given a bait containing 0.5 percent by weight of sodium bisulphite. The bait consisted of cracked grains (wheat, corn, millet and corn meal). The amounts of bait eaten were summarized for an eleven day period.

patients = experiment: Human use, case histories; type: in vivo
Excerpt: To evaluate the effect of sodium bisulphite in human use (this agent being known to be safe for human consumption), certain patients received this agent. The case history and observations are summarized individually below.
In each case, each patient was provided with a bottle of Solution D, unless otherwise noted, and was instructed to dose himself (or herself, as the case may be) from the bottle so provided at the rate of seven drops to be taken orally with each of his (her) three daily meals. When the contents of one such bottle were thus gradually consumed by an individual patient, another was provided.

blood = experiment: Storage of human blood samples with added sodium bisulphite solution; conditions: about 4 cc blood plus about 10 drops of 10 weight percent solution; about 2) years at ambient temperatures
Procedure: Samples of about 4 cc each of blood were prepared. To each of these was added about 10 drops of a 10 weight percent solution of sodium bisulphite in distilled water. Each sample was then sealed into a glass vial.

[2] = chemical grade sodium bisulphite 0.01 mg/ml
[3] = chemical grade sodium bisulphite 0.05 mg/ml
[4] = chemical grade sodium bisulphite 0.1 mg/ml
[5] = chemical grade sodium bisulphite 0.5 mg/ml
[6] = chemical grade sodium bisulphite 1.0 mg/ml
[7] = chemical grade sodium bisulphite 5.0 mg/ml

## Sodium bisulphite
[1]
  platelet aggregation: abolishes platelet aggregation
Fibrinogen; Sodium bisulphite 0.01 mg/ml
  Fibrogen: 222 mg%
Fibrinogen; Sodium bisulphite 0.05 mg/ml
  Fibrogen: 228 mg%
Fibrinogen; Sodium bisulphite 0.1 mg/ml
  Fibrogen: 217 mg%
Fibrinogen; Sodium bisulphite 0.5 mg/ml
  Fibrogen: 190 mg%
Fibrinogen; Sodium bisulphite 1.0 mg/ml
  Fibrogen: 185 mg%
Fibrinogen; Sodium bisulphite 5.0 mg/ml
  Fibrogen: 130 mg%
Fibrinogen; [2]
  Fibrinogen: 228 mg%
Fibrinogen; [3]
  Fibrinogen: 245 mg%
Fibrinogen; [4]
  Fibrinogen: 218 mg%
Fibrinogen; [5]
  Fibrinogen: 182 mg%
Fibrinogen; [6]
  Fibrinogen: 184 mg%
Fibrinogen; [7]
  Fibrinogen: 119 mg%
Factor V; Sodium bisulphite 0.01 mg/ml, solution D
  Factor V: 74%
Factor V; Sodium bisulphite 0.05 mg/ml, solution D
  Factor V: 72%
Factor V; Sodium bisulphite 0.1 mg/ml, solution D
  Factor V: 80%
Factor V; Sodium bisulphite 0.5 mg/ml, solution D
  Factor V: 70%
Factor V; Sodium bisulphite 1.0 mg/ml, solution D
  Factor V: 60%
Factor V; Sodium bisulphite 5.0 mg/ml, solution D
  Factor V: 54%
Factor V; [2]
  Factor V: 70
Factor V; [3]
  Factor V: 68
Factor V; [4]
  Factor V: 68
Factor V; [5]
  Factor V: 64
Factor V; [6]
  Factor V: 66
Factor V; [7]
  Factor V: 60
Human plasma
  coagulation of human plasma: completely disrupted
rats; 2 days, Rat 1 and Rat 4, bait with 0.5% sodium bisulphite
  death of rat: Died
rats; Rat 5, bait with 0.5% sodium bisulphite
  First day blood factor PT: 27
rats; Rats 1, 2, 3, bait with 0.5% sodium bisulphite
  First day blood factor PT, increase: 26% increase and 24% increase and 28% increase
rats; three rats with increased PT
  change in PTT, first day: no apparent change
patients; after about 5 years, before between 200 and 220 mg %
  Case IV: blood cholesterol value: about 144 mg %
patients; person, Solutions A, B, C or D orally, within 2-3 months
  Case IV: hypertension, arthritis, arrhythmia, haemorrhoids, dyspepsia, cyanotic fingers and toes, malaise (except diabetes): improved
blood
  coagulation of stored blood samples: have not coagulated
